Read-outs that look alike come from different tables or passages of the source.
Experiments:
[1] = tested on: multidrug transporter ABCG2; parameters: method as in PMID 20627559; settings: cited from earlier work
[2] = tested on: GFP-expressing immortalised mouse olfactory ensheathing cells (mOEC); assay: mOEC cell proliferation (resazurin viability) assay; type: cell-based; settings: 10 µM, 24 hours of treatment
Protocol: Compounds 1–7 have now been added to the Davis Open-Access Compound Library housed at Compounds Australia, Griffith University, where they are available for collaboration in drug discovery or chemical biology research.
The cell proliferation assay was performed according to the method described by Chen et al., with modification. Briefly, GFP-expressing immortalised mouse OECs (mOEC) were seeded at 2000 cells/well in a 384-well microplate (Greiner Bio-One, Kremsmünster, Austria) with a Multidrop™ Combi Reagent Dispenser (Thermo Fisher Scientific, Waltham, MA, USA) using the BioCel Automation System (Agilent Technologies, Santa Clara, CA, USA) and incubated overnight at 37 °C under 5% CO2. After 24 hours, the cells were treated with 4 different concentrations of pure compounds (10, 1, 0.1 and 0.01 µM). 0.2% DMSO was used as negative control. Plates were incubated for 24 hours at 37 °C under 5% CO2. Cell viability of mOECs was measured by adding 5 µL of resazurin (500 μM, Sigma-Aldrich, Sydney, Australia) to the cells and incubated in dark for 4 hours at 37 °C under 5% CO2. The dehydrogenase enzymes found in metabolically active cells will convert resazurin to resofurin products that are soluble in culture medium. The fluorescent resofurin products produced by the viable cells are quantified using an EnVision™ Multilabel (PerkinElmer, Waltham, MA, USA) plate reader at 535/595nm. After that, the cells were fixed and stained with Hoechst (Thermo Fisher Scientific, Waltham, MA, USA) and stored at 4 °C prior to imaging. Cells were imaged automatically using Operetta™ (PerkinElmer, Waltham, MA, USA). Individual cell segmentation and cell count were performed using the Harmony 3.5.2® software.

HIV-1 strain NL4.3 = assay: multi-cycle HIV-1 replication assay in CEM-GXR GFP-reporter T cells; type: cell-based; settings: for EC50: read-out: EC50, in vitro HIV-1 replication; for inhibition of HIV-1 replication (in words): CEM-GXR T cell line
Protocol: The ability of compounds 1–7 to inhibit HIV-1 replication was evaluated in vitro using an established multi-cycle replication assay. Briefly, the CEM-GXR T cell line, which contains an HIV-1 promoter-driven green fluorescent protein (GFP) reporter, was infected with the full-length, infectious HIV-1 strain NL4.3 at a multiplicity of infection of 0.03 [18]. After 24 hours, cells were washed and subsequently incubated with compounds 1–7, the control HIV inhibitor efavirenz, or 0.1% DMSO vehicle control. GFP expression, a marker of viral replication, was then measured by flow cytometry after 72 hours.
(§1) The following reagents were obtained from the NIH AIDS Reagent Program: CEM CD4^+ cells (CEM) from Dr. J.P. Jacobs, [23] and pNL4-3 from M. Martin [24]. Efavirenz and panobinostat were purchased from Sigma-Aldrich (St. Louis, MO, USA). CEM and CEM-derived GXR25 GFP-reporter T cells (CEM-GXR; [18]) were cultured in R10+ medium [RPMI-1640 with HEPES and L-Glutamine (Lonza, Basel, Switzerland), 10% fetal calf serum, 100 U of penicillin/mL, and 100 µg of streptomycin/mL Sigma-Aldrich (St. Louis, MO, USA)]. Production of HIV-1 NL4.3 and multi-cycle HIV-1 replication assays were performed as described previously. Apoptosis assays were performed by staining CEM cells with annexin V-APC (BioLegend, San Diego, CA) according to manufacturer instructions.

CEM cells = assay: apoptosis (annexin V-APC) cellular toxicity assay in CEM cells; type: cell-based; settings: 72 hours
Protocol: Compounds 1–7 were further assessed for cellular toxicity in CEM cells, the parental cell line of CEM-GXR. After 72 hours’ treatment with compounds, toxicity was assessed by measuring the surface expression of the early apoptotic marker annexin V by flow cytometry (by staining with annexin V-APC). […] In contrast, no increase in apoptosis was observed up to 100 µM for compounds 1–7, with the exception of compound 2, which induced 1.4 ± 0.2 and 2.2 ± 0.4-fold increases at 30 and 100 µM, respectively.
as §1

[3] = compound stability (observation); type: physicochemical
[4] = Human immunodeficiency virus 1, CEM-GXR T cells, HIV-1 NL4.3, MOI 0.03, GFP by flow cytometry after 72 hours, mean ± s.d. of three independent experiments

SMILES: CCCc1cc(=O)c2c(O)c3c(OC)cc(O)cc3c(OC)c2o1
- inhibition of ABCG2 (in words) [1]: inhibit

SMILES: CCCc1cc(=O)c2c(cc(C(C)=O)c3c(OC)cc(=O)oc32)o1 [Compound 1, 5-acetyl-4-methoxy-8-propylpyrano[2,3-f]chromene-2,10-dione]
- increase in mOEC viability (in words) [2]: none of the compounds showed a significant increase
- EC50 (HIV-1 strain NL4.3; [4]): > 100 µM

SMILES: CCCc1cc(=O)c2c(O)cc3cc(O)cc(OC)c3c2o1 [Compound 2, comaparvin]
- fold increase in apoptotic cells relative to 0.1% DMSO (CEM cells; 30 µM): 1.4 ± 0.2 fold
- fold increase in apoptotic cells relative to 0.1% DMSO (CEM cells; 100 µM): 2.2 ± 0.4 fold
- fold increase in activity as compared to 5 (HIV-1 strain NL4.3; HIV-1 replication EC50, angular vs linear naphthopyrone): approximately 2.0 fold
- EC50 (HIV-1 strain NL4.3; [4]): 7.5 ± 1.7 µM

SMILES: COc1cc(O)cc2cc(O)c3c(=O)cc(C)oc3c12 [Compound 3, TMC-256C1]
- inhibition of HIV-1 replication (in words) (HIV-1 strain NL4.3): weaker but consistent antiviral activity
- fold reduction in activity compared to 2 (HIV-1 strain NL4.3; HIV-1 replication EC50, methyl instead of propyl at C-2): 3.4 fold
- EC50 (HIV-1 strain NL4.3; [4]): 25.5 ± 3.4 µM

SMILES: CCCc1cc(=O)c2c(OC)c(OC)c3cc(O)cc(OC)c3c2o1 [Compound 4, 6-methoxycomaparvin-5-methyl ether]
- increase in mOEC viability (in words) [2]: none of the compounds showed a significant increase
- EC50 (HIV-1 strain NL4.3; [4]): 14.5 ± 5.8 µM

SMILES: CCCc1cc(=O)c2c(O)c3c(OC)cc(O)cc3cc2o1 [Compound 5, 5,8-dihydroxy-6-methoxy-2-propyl-4H-naphtho[2,3-b]pyran-4-one]
- EC50 (HIV-1 strain NL4.3; [4]): 15.6 ± 6.5 µM

SMILES: CCCc1cc(=O)c2c(O)c3c(OC)cc(O)cc3c(OC)c2o1 [Compound 6, 5,8-dihydroxy-6,10-dimethoxy-2-propyl-4H-naphtho[2,3-b]pyran-4-one]
- EC50 (HIV-1 strain NL4.3; [4]): 20.2 ± 4.9 µM

SMILES: COc1cc(O)cc2cc3oc(C)cc(=O)c3c(O)c12 [Compound 7, TMC-256A1]
- increase in mOEC viability (in words) [2]: none of the compounds showed a significant increase
- inhibition of HIV-1 replication (in words) (HIV-1 strain NL4.3): no detectable activity
- EC50 (HIV-1 strain NL4.3; [4]): > 100 µM

SMILES: CCCc1cc(=O)c2c(O)c(OC)c3cc(O)cc(OC)c3c2o1 [Compound 8, 6-methoxycomaparvin]
- stability (in words) [3]: unstable

SMILES: O=C1Nc2ccc(Cl)cc2[C@@](C#CC2CC2)(C(F)(F)F)O1 [Efavirenz, reference compound]
- EC50 (HIV-1 strain NL4.3; Human immunodeficiency virus 1, CEM-GXR, 72 h): 0.0025 ± 0.0019 µM

SMILES: COc1cc(O)cc2cc3oc(C)cc(=O)c3c(O)c12 [TMC-256A1]
- inhibition of ABCG2 (in words) [1]: inhibit

SMILES: Cc1[nH]c2ccccc2c1CCNCc1ccc(/C=C/C(=O)NO)cc1 [panobinostat, reference compound]
- fold increase in apoptotic cells relative to 0.1% DMSO (CEM cells; 3 µM): 4.2 ± 1.8 fold

Source: paper PMC6356231, “Capillasterin A, a Novel Pyrano[2,3-f]chromene from the Australian Crinoid Capillaster multiradiatus” (Marine Drugs, 2019)
